One series concerns Vero cells. The note with it: African green monkey.
The test system of a further series is DENV-2 strain 16681. Description: Tetravalent RT-qPCR assay, serotype 2. The conditions noted are these: RT-qPCR serotype 2 16681, Protocol A, Vero cells, day 3. The format is cell-based, Dengue virus. The protocol:
(§1) Tetravalent reverse transcriptase quantitative-PCR (RT-qPCR) assay The antiviral activity of the compounds of the invention was tested against DENV-1 strain TC974#666 (NCPV), DENV-2 strain 16681, DENV-3 strain H87 (NCPV) and DENV-4 strain H241 (NCPV) in a RT-qPCR assay. Therefore, Vero cells were infected with either DENV-1, or -2, or -3, or -4 in the presence or absence of test compounds. At day 3 post-infection, the cells were lysed and cell lysates were used to prepare cDNA of both a viral target (the 3′UTR of DENV; Table 2) and a cellular reference gene (β-actin, Table 2). Subsequently, a duplex real time PCR was performed on a Lightcycler480 instrument. The generated Cp value is inversely proportional to the amount of RNA expression of these targets. Inhibition of DENV replication by a test compound results in a shift of Cp's for the 3′UTR gene. On the other hand, if a test compound is toxic to the cells, a similar effect on β-actin expression will be observed. The comparative ΔΔCp method is used to calculate EC50, which is based on the relative gene expression of the target gene (3′UTR) normalized with the cellular housekeeping gene (β-actin). In addition, CC50 values are determined based on the Cp values acquired for the housekeeping gene β-actin.
(§2) The culture medium consisted of minimal essential medium supplemented with 2% of heat-inactivated fetal calf serum, 0.04% gentamycin (50mg/mL) and 2 mM of L-glutamine. Vero cells, obtained from ECACC, were suspended in culture medium and 75 μL/well was added in 96-well plates (10000 cells/well), which already contain the antiviral compounds. […] In addition, each plate contains wells which are assigned as virus controls (containing cells and virus in the absence of compound) and cell controls (containing cells in the absence of virus and compound). Once the cells were added in the plates, the plates were incubated in a fully humidified incubator (37° C., 5% CO2) until the next day. Dengue viruses serotype-1, 2, 3 and 4 were diluted in order to obtain a Cp of ˜22-24 in the assay. Therefore, 25 μL of virus suspension was added to all the wells containing test compound and to the wells assigned as virus control. In parallel, 25 μL of culture medium was added to the cell controls. Next, the plates were incubated for 3 days in a fully humidified incubator (37° C., 5% CO2). After 3 days, the supernatant was removed from the wells and the cells were washed twice with ice-cold PBS (˜100 μL). The cell pellets within the 96-well plates were stored at −80° C. for at least 1 day. Next, RNA was extracted using the Cells-to-CT™ lysis kit, according to the manufacturer's guideline (Life Technologies). The cell lysates can be stored at −80° C. or immediately used in the reverse transcription step.
(§3) In preparation of the reverse transcription step, mix A (table 3A) was prepared and 7.57 μL/well was dispensed in a 96-well plate. After addition of 5 μL of the cell lysates, a five minute denaturation step at 75° C. was performed (table 3B). Afterwards, 7.43 μL of mix B was added (table 3C) and the reverse transcription step was initiated (table 3D) to generate cDNA.
(§4) Finally, a RT-qPCR mix was prepared, mix C (table 4A), and 22.02 μL/well was dispensed in 96-well LightCycler qPCR plates to which 3μL of cDNA was added and the qPCR was performed according to the conditions in table 4B on a LightCycler 480.
(§5) Using the LightCycler software and an in-house LIMS system, dose response curves for each compound were calculated and the half maximal effective concentration (EC50) and the half maximal cytotoxic concentration (CC50) were determined (Tables 5-8).

Another series has as its system DENV-1 strain TC974#666. The series is described as follows: Tetravalent RT-qPCR assay, serotype 1. The format is cell-based, Dengue virus. The conditions noted are these: RT-qPCR serotype 1 TC974#666, Protocol A, Vero cells, day 3. The protocol:
as §1, §2, §3, §4, §5
In general terms: Real-time PCR tracks product formation cycle by cycle.

Another series concerns DENV-4 strain H241. The series is described as follows: Tetravalent RT-qPCR assay, serotype 4. The format is cell-based, Dengue virus. The note with it: RT-qPCR serotype 4 H241, Protocol A, Vero cells, day 3, read-out: EC50. The protocol:
as §1, §2, §3, §4, §5

The test system of the next series is DENV-3 strain H87. The series is described as follows: Tetravalent RT-qPCR assay, serotype 3. It counts as cell-based, Dengue virus. The note with it: RT-qPCR serotype 3 H87, Protocol A, Vero cells, day 3. The method, then: as §1, §2, §3, §4, §5
In a further series the test system is DENV-2 16681 strain. Description: DENV-2 antiviral assay (eGFP-labeled virus in Vero cells). The note with it: DENV-2 16681 eGFP, MOI 0.5, 3 days. It counts as cell-based, Dengue virus. The protocol: The antiviral activity of all the compounds of the invention was tested the against DENV-2 16681 strain which was labeled with enhanced green fluorescent protein (eGPF). The culture medium consists of minimal essential medium supplemented with 2% of heat-inactivated fetal calf serum, 0.04% gentamycin (50 mg/mL) and 2 mM of L-glutamine. Vero cells, obtained from ECACC, were suspended in culture medium and 25 μL was added to 384-well plates (2500 cells/well), which already contain the antiviral compounds. Typically, these plates contain a 5-fold serial dilution of 9 dilution steps of the test compound at 200 times the final concentration in 100% DMSO (200 nL). […] Finally, each plate contains wells which are assigned as virus controls (containing cells and virus in the absence of compound), cell controls (containing cells in the absence of virus and compound) and medium controls (containing medium in the absence of cells, virus and compounds). To the wells assigned as medium control, 25 μL of culture medium was added instead of Vero cells. Once the cells were added to the plates, the plates were incubated for 30 minutes at room temperature to allow the cells to distribute evenly within the wells. Next, the plates were incubated in a fully humidified incubator (37° C., 5% CO2) until the next day. Then, DENV-2 strain 16681, labeled with eGFP, was added at a multiplicity of infection (MOI) of 0.5. Therefore, 15 μL of virus suspension was added to all the wells containing test compound and to the wells assigned as virus control. In parallel, 15 μL of culture medium was added to the medium and cell controls. Next, the plates were incubated for 3 days in a fully humidified incubator (37° C., 5% CO2). At the day of the read out, the eGFP fluorescence was measured using an automated fluorescence microscope at 488 nm (blue laser). Using an in-house LIMS system, inhibition dose response curves for each compound were calculated and the half maximal effective concentration (EC50) was determined. Therefore, the percent inhibition (I) for every test concentration is calculated using the following formula: I=100*(ST-SCC)/(SVC-SCC), ST, SCC and SVC are the amount of eGFP signal in the test compound, cell control and virus control wells, respectively. The EC50 represents the concentration of a compound at which the virus replication is inhibited with 50%, as measured by a 50% reduction of the eGFP fluorescent intensity compared to the virus control. The EC50 is calculated using linear interpolation (Table 1).

A short description of a further series: in vitro. The note with it: African green monkey.
The mark [1] stands for this setting: Dengue virus, DENV2, Vero, 72 h.
The mark [2] stands for this setting: Dengue virus, DENV1, Vero, 72 h.
Where [3] appears, read: Dengue virus, DENV4, Vero, 72 h.
The mark [4] stands for this setting: Dengue virus, DENV3, Vero, 72 h.

Molecules are shown by their SMILES. Read-outs that look alike come from different tables or passages of the source. Where only a bound is given, the exact number is not on record here.

For nine compounds, CC50 and EC50 results are on record in US20200339511A1, “Substituted indoline derivatives as dengue viral replication inhibitors” (priority 2016, published 2020).

A word on the EC50: it is the concentration giving half of the maximal effect.

In the series on Vero cells, `COc1cc(NC(C(=O)N2CCc3cc(OC)c(C(F)(F)F)cc32)c2ccc(Cl)cc2OC)cc(OCCO)c1` (single isomer, unassigned) [Compound 11B, 2-(4-chloro-2-methoxyphenyl)-2-((3-(2-hydroxyethoxy)-5-methoxyphenyl)amino)-1-(5-methoxy-6-(trifluoromethyl)indolin-1-yl)ethanone] registered a CC50 greater than 25000 nM. In addition, the EC50 in the series on DENV-2 strain 16681 (setting [1]) is 2 nM; in the series with DENV-1 strain TC974#666 (setting [2]) it was 7.8 nM; with DENV-4 strain H241 (setting [3]), 280 nM; in the series on DENV-3 strain H87 (setting [4]) it was 34 nM; in the series on DENV-2 16681 strain it was 1.6 nM.
As for `COc1cc(NC(C(=O)N2CCc3ccc(C(F)(F)F)cc32)c2ccc(Cl)cc2)cc(OCCO)c1` (single isomer, unassigned) [Compound 4A, 2-(4-chlorophenyl)-2-((3-(2-hydroxyethoxy)-5-methoxyphenyl)amino)-1-(6-(trifluoromethyl)indolin-1-yl)ethanone], in “in vitro”, the CC50 was determined as 12000 nM. Also, the EC50 stood at 4.3 nM in the series on DENV-2 strain 16681; 3.9 nM in the series on DENV-1 strain TC974#666; 210 nM in the series on DENV-4 strain H241; 27 nM with DENV-3 strain H87; 3.6 nM in the series with DENV-2 16681 strain.
Compound `COc1cc(NC(C(=O)N2CCc3ccc(C(F)(F)F)cc32)c2ccc(Cl)cc2OC)cc(OCCO)c1` (single isomer, unassigned) [Compound 1B, 2-(4-chloro-2-methoxyphenyl)-2-((3-(2-hydroxyethoxy)-5-methoxyphenyl)amino)-1-(6-(trifluoromethyl)indolin-1-yl)ethanone] showed a CC50 with Vero cells of 12000 nM. Further, the EC50 in the series with DENV-2 strain 16681 (setting [1]) was 3.6 nM; in the series on DENV-1 strain TC974#666 (setting [2]), 4.4 nM; in the series with DENV-4 strain H241 (setting [3]) it was 250 nM; with DENV-3 strain H87 (setting [4]), 56 nM; in the series on DENV-2 16681 strain it was 3.6 nM.
For the compound `COc1cc(NC(C(=O)N2CCc3cc(F)c(C(F)(F)F)cc32)c2ccc(Cl)cc2)cc(OCCO)c1` (single isomer, unassigned) [Compound 12A, 2-(4-chlorophenyl)-1-(5-fluoro-6-(trifluoromethyl)indolin-1-yl)-2-((3-(2-hydroxyethoxy)-5-methoxyphenyl)amino)ethanone], the CC50 in “in vitro” amounted to 12000 nM. Besides, the half-maximal effective concentration (EC50) with DENV-2 strain 16681 (setting [1]) was 4.4 nM; in the series on DENV-1 strain TC974#666 (setting [2]), 3.3 nM; in the series with DENV-4 strain H241 (setting [3]) it was 240 nM; in the series with DENV-3 strain H87 (setting [4]), 40 nM; in the series on DENV-2 16681 strain it was 2.3 nM.
Regarding `COc1cc(NC(C(=O)N2CCc3c(C)cc(OC(F)(F)F)cc32)c2ccc(Cl)cc2)cc(OCCO)c1` (single isomer, unassigned) [Compound 9B, 2-(4-chlorophenyl)-2-((3-(2-hydroxyethoxy)-5-methoxy-phenyl)amino)-1-(4-methyl-6-(trifluoromethoxy)indolin-1-yl)ethanone], the CC50 in the series on Vero cells amounted to 11000 nM. Further, the concentration giving a half-maximal response (EC50) in the series with DENV-2 strain 16681 (setting [1]) came out at 1.2 nM; in the series on DENV-1 strain TC974#666 (setting [2]) it was 2.7 nM; with DENV-4 strain H241 (setting [3]), 110 nM; in the series with DENV-3 strain H87 (setting [4]), 16 nM; in the series with DENV-2 16681 strain, 1.4 nM.
For `COc1cc(NC(C(=O)N2CCc3ccc(OC(F)(F)F)cc32)c2ccc(Cl)cc2)cc(OCCO)c1` (single isomer, unassigned) [Compound 3A, 2-(4-chlorophenyl)-2-((3-(2-hydroxyethoxy)-5-methoxyphenyl)amino)-1-(6-(trifluoromethoxy)indolin-1-yl)ethanone], in “in vitro”, the CC50 was found to be 9600 nM. The EC50 with DENV-2 strain 16681 (setting [1]) was 2.2 nM; with DENV-1 strain TC974#666 (setting [2]), 3.6 nM; with DENV-4 strain H241 (setting [3]), 190 nM; with DENV-3 strain H87 (setting [4]), 29 nM; in the series on DENV-2 16681 strain, 2.3 nM.
For the compound `COc1cc(NC(C(=O)N2CCc3cc(OC)c(C(F)(F)F)cc32)c2ccc(Cl)cc2F)cc(OCCO)c1` (single isomer, unassigned) [Compound 8B, 2-(4-chloro-2-fluorophenyl)-2-((3-(2-hydroxyethoxy)-5-methoxyphenyl)amino)-1-(5-methoxy-6-(trifluoromethyl)indolin-1-yl)ethanone], the CC50 in the series on Vero cells is no less than 76000 nM. The EC50 in the series on DENV-2 strain 16681 (setting [1]) amounted to 2.3 nM; in the series on DENV-1 strain TC974#666 (setting [2]), 8.1 nM; with DENV-4 strain H241 (setting [3]), 120 nM; in the series on DENV-3 strain H87 (setting [4]), 50 nM; in the series on DENV-2 16681 strain, 1.9 nM.
`COc1cc(NC(C(=O)N2CCc3c(C)cc(C(F)(F)F)cc32)c2ccc(Cl)cc2)cc(OCCO)c1` (single isomer, unassigned) [Compound 10B, 2-(4-chlorophenyl)-2-((3-(2-hydroxyethoxy)-5-methoxy-phenyl)amino)-1-(4-methyl-6-(trifluoromethyl)indolin-1-yl)ethanone] showed a CC50 with Vero cells of 11000 nM. Further, the EC50 amounted to 2.3 nM in the series with DENV-2 strain 16681 (setting [1]); 1.7 nM in the series with DENV-1 strain TC974#666 (setting [2]); 160 nM in the series with DENV-4 strain H241 (setting [3]); 16 nM in the series on DENV-3 strain H87 (setting [4]); 2.2 nM with DENV-2 16681 strain.
`COc1cc(NC(C(=O)N2CCc3ccc(C(F)(F)F)cc32)c2ccc(Cl)cc2)cc(OCCO)c1` (single isomer, unassigned) [Compound 4B, 2-(4-chlorophenyl)-2-((3-(2-hydroxyethoxy)-5-methoxyphenyl)amino)-1-(6-(trifluoromethyl)indolin-1-yl)ethanone] displayed a CC50 in the series with Vero cells of 14000 nM. The EC50 is 1000 nM with DENV-2 strain 16681; 700 nM in the series on DENV-1 strain TC974#666; greater than 2500 nM in the series on DENV-4 strain H241; greater than 1900 nM in the series on DENV-3 strain H87; 1100 nM in the series with DENV-2 16681 strain.
